Assay results taken from patent US8470783B2, “Medicinal use of histone deacetylase inhibitor and method of evaluating antitumor effect thereof” (Astellas Pharma Inc., priority 2001, dated 2013).

How the values were obtained:
human kidney cancer ACHN [1] = assay: In vitro growth suppression, ACHN; assay type: cell-based; settings: contacted for 72 hr
human lymphoma U937 = assay: In vitro growth suppression, U937; assay type: cell-based; settings: U937, contacted for 72 hr
[2] = test system: human prostate cancer PC-3; assay: In vitro growth suppression, PC-3; assay type: cell-based; settings: PC-3, contacted for 72 hr
human kidney cancer ACHN [3] = assay: In vivo growth suppression rate, ACHN tumor-carrying mice; design: species or system mouse; settings: FR901228 3.2 mg/kg
Description: (§1) The growth suppression rate of human prostate cancer PC-3, human gastric cancer SC-6, human kidney cancer ACHN and human kidney cancer A498 by the administration of FR901228 (3.2 mg/kg) was 98%, 84%, 20% and 29%, respectively. Therefore, PC-3 and SC-6 were determined to be FK228 sensitive tumors, and ACHN and A498 were determined to be FK228 resistant tumors.

[4] = test system: human prostate cancer cell line PC-3; assay: Antitumor test, human prostate cancer PC-3 solid tumor in nude mice (Example 1); assay type: in vivo, mouse; settings: PC-3, i.v. q4d×3, 3.2 and 1.8 mg/kg, FIG. 1
Description: (§2) A necessary amount of FR901228 was weighed and a solvent (10% HCO-60/saline) was added. The mixture was sonicated to allow for dissolution. A positive control substance Paclitaxel was dissolved in Cremophor EL/ethanol (1:1) solution to 24 mg/mL prior to the testing, and preserved in a refrigerator. When in use, it was diluted with a 9-fold amount of physiological saline to 2.4 mg/mL (solvent component: 5% Cremophor EL-5% ethanol-90% saline).
For antitumor test of the pharmaceutical agent, BALB/cANnNCrj-nu/nu mice (male, 6-week-old) were purchased from Charles River Japan and, after acclimation for not less than one week, used for the test. The mice were reared under an SPF environment and allowed a free access to water and feed. […]
(§3) The administration was started on the day of grouping (Day 0). […] The amount of liquid for each administration was calculated (0.1 mL/10 g body weight) based on the body weight measured on the administration day. […]
(§4) The tumor size (longer diameter, shorter diameter) and body weight were measured twice a week from Day 0.
The level of tumor growth was evaluated based on the tumor growth rate (Relative Tumor Volume). […] The antitumor effect was determined on the 14th day (Day 14) from the start of the administration of the pharmaceutical agent. […]

[5] = test system: p21 gene expression in ACHN cells; assay: p21 gene expression in vitro by real time PCR, ACHN (Example 4); assay type: cell-based, human; settings: FR901228 5 ng/mL, FIG. 4(b)
Description: (§5) A necessary amount of FR901228 was weighed and dissolved in a solvent (99.5% ethanol) to the concentration of 1 mg/mL. Then, the solution was diluted with culture medium.
(§6) Cultured human cancer cell (PC-3 and ACHN) were cultured in DMEM (containing 10% FCS).
(§7) The cells were inoculated at 2×10^6 cells per a culture dish, and cultured in the presence of FR901228 (5 ng/mL) for a given time. After culturing, RNA was extracted with a TRIZOL reagent (GIBCO BRL) according to the operation manual.
(§8) RNA was subjected to reverse transcription using a Taq-man reverse transcription reagent (PE Biosystem) according to the operation manual. Thereafter, p21 gene was amplified using a SYBR green PCR master mix (PE Biosystem) and primer 5′-GGCAGACCAGCATGACACATT-3′ (p21 upstream)(SEQ ID; No 1), 5′-GGATTAGGGCTTCCTCTTGGAG-3′ (SEQ ID; No 2) according to the operation manual, and detected with ABI 7700 PRISM sequence detector (PE Biosystem). The expression amount of p21 gene was calculated from a standard curve, divided by the expression amount of β-actin gene, which was used as an internal standard, and expressed in a standardized relative expression amount.

histone deacetylase = settings: Nakajima, H. et al (1998); cited from earlier work
[6] = test system: p21 gene and c-myc gene expression in PC-3 tumor; assay: p21 and c-myc gene expression in vivo in PC-3 tumor of nude mouse (Example 5); settings: 3.2 mg/kg i.v.
Description: (§9) Human prostate cancer PC-3 or kidney cancer ACHN was subcutaneously implanted in a nude mouse, and when the size of the tumor reached 100-300 mg, FR901228 (3.2 mg/kg) was intravenously administered. The tumor was removed with the lapse of time, and after extracting RNA, the expression amount of p21 gene and c-myc gene was examined by real time PCR in the same manner as in Example 4. The c-myc gene was amplified using a SYBR green PCR master mix (PE Biosystem) and primer 5′-GACAGATCAGCAACAACCGAAA-3′ (human c-myc upstream)(SEQ ID; No 3), 5′-TTGTGTGTTCGCCTCTTGACAT-3′ (human c-myc downstream)(SEQ ID; No 4) according to the operation manual, and detected with ABI 7700 PRISM sequence detector (PE Biosystem).

[7] = test system: human kidney cancer cell line ACHN; assay: Antitumor test, human kidney cancer ACHN solid tumor in nude mice (Example 3); assay type: in vivo, mouse; settings: i.v. q4d×3, FIG. 3(b)
Description: as §2
(§10) For antitumor test of the pharmaceutical agent, BALB/cANnNCrj-nu/nu mice (male, […]) were purchased from Charles River Japan and, after acclimation for not less than one week, used for the test. The mice were reared under an SPF environment and allowed a free access to water and feed. […]
as §3, §4
(§11) The level of tumor growth was evaluated based on the tumor growth rate (Relative Tumor Volume). […] The antitumor effect was determined on the 14th day (Day 14) from the start of the administration of a pharmaceutical agent. […]

[8] = test system: human lymphoma cell line U937; assay: Survival test, human lymphoma U937 implanted intraperitoneally in SCID mice (Example 2); assay type: in vivo, mouse; settings: U937, i.p. once or twice a week, 0.1-1.0 mg/kg, FIG. 2
Description: A necessary amount of FR901228 was weighed and a solvent (10% HCO-60/saline) was added. The mixture was sonicated to allow for dissolution.
For antitumor test of the pharmaceutical agent, Fox Chase C. B-17/Icr-SCID.Jcl mice (male, 6-week-old) were purchased from CLEA JAPAN INC. and, after acclimation for not less than one week, used for the test. The mice were reared under an SPF environment and allowed a free access to water and feed.
Cultured human lymphoma cell line (U937: obtained from Dr. Minowada, Hayashibara Biochemical Laboratories, Inc.) was cultured in RPMI (containing 10% FCS) and subcultured in vitro.
Cyclo phosphamide (Shionogi & Co., Ltd., 150 mg/kg) was intraperitoneally administered to mice. Lymphoma (1×10^7 cells) subcultured in vitro was intraperitoneally implanted the next day. After the tumor implantation, the mice were grouped into 6 (control group 12) mice per group to level the body weight.
The administration was started on the day of grouping (Day 0). FR901228 was intraperitoneally administered to an FR901228 administration group once or twice a week (0.1-1.0 mg/kg). Only a solvent (10% HCO-60/saline) was administered to a control group.
As an antitumor effect, the survival days of the mice were counted.

[9] = test system: human gastric cancer SC-6; assay: In vivo growth suppression rate, SC-6 tumor-carrying mice; design: species or system mouse; settings: SC-6, FR901228 3.2 mg/kg
Description: as §1

[10] = test system: p21 gene expression in PC-3 cells; assay: p21 gene expression in vitro by real time PCR, PC-3 (Example 4); assay type: cell-based, human; settings: PC-3, FR901228 5 ng/mL, FIG. 4(a)
Description: as §5, §6, §7, §8

[11] = test system: p21 gene and c-myc gene expression in ACHN tumor; assay: p21 and c-myc gene expression in vivo in ACHN tumor of nude mouse (Example 5); settings: 3.2 mg/kg i.v.
Description: as §9

human kidney cancer A498 = assay: In vivo growth suppression rate, A498 tumor-carrying mice; design: species or system mouse; settings: A498, FR901228 3.2 mg/kg
Description: as §1

[12] = test system: human prostate cancer PC-3; assay: In vivo growth suppression rate, PC-3 tumor-carrying mice; design: species or system mouse; settings: PC-3, FR901228 3.2 mg/kg
Description: as §1

[13] = test system: human prostate cancer cell line PC-3; assay: Antitumor test, human prostate cancer PC-3 solid tumor in nude mice (Example 3); assay type: in vivo, mouse; settings: dose of 3.2 mg/kg i.v. q4d×3, FIG. 3(a)
Description: as §2, §10, §3, §4, §11

Molecule | growth suppression effect in IC50 value (human kidney cancer ACHN [1]) | growth suppression effect in IC50 value (human lymphoma U937) | growth suppression effect in IC50 value [2] | growth suppression rate (human kidney cancer ACHN [3]) | antitumor effect in vivo against human prostate cancer (tumor growth rate) [4] | p21 gene expression in vitro [5] | histone deacetylase inhibitory activity (histone deacetylase) | c-myc gene expression in vivo [6] | time of peak of p21 gene expression after administration [6] | p21 gene expression in vivo ([6]; FIG. 5(a)) | antitumor effect against ACHN (tumor growth rate) [7] | antitumor effect in vivo against human lymphoma (survival of mice) [8] | growth suppression rate [9] | p21 gene expression in vitro [10] | c-myc gene expression in vivo [11] | p21 gene expression in vivo ([11]; FIG. 5(a)) | growth suppression rate (human kidney cancer A498) | growth suppression rate [12] | antitumor effect against PC-3 (tumor growth rate) [13]
FK228 | 4.25 ng/mL | 3.20 ng/mL | 3.17 ng/mL |  |  |  |  |  |  |  |  |  |  |  |  |  |  |  | 
C/C=C1\NC(=O)[C@H]2CSSCC/C=C/[C@H](CC(=O)N[C@H](C(C)C)C(=O)N2)OC(=O)[C@H](C(C)C)NC1=O [FR901228] |  |  |  | 20% | showed an antitumor effect | did not show increased expression of p21 gene | stronger histone deacetylase inhibitory activity | decreased expression | 3 h | increased expression of p21 gene | did not show an antitumor effect | showed an antitumor effect | 84% | increased expression of the p21 gene with the lapse of time | increased expression | did not show increased expression of p21 gene | 29% | 98% | potent antitumor effect
